The values that follow come from patent US20170035884A1, “AQUEOUS GELLING COMPOSITIONS OF SOLUBLE ACTIVE PHARMACEUTICAL PEPTIDES PROVIDING MODIFIED RELEASE” (Ipsen Pharma S.A.S., priority 2012, published 2017).

Structures are written as SMILES. Counter-ions that a name gives are not always drawn. Like-named read-outs stand apart in the source and are kept apart here.

For orientation: solubility means the concentration that dissolves in the medium under given conditions.

The nature of this data set: Solubility testing of peptide 1 salts in gelling compositions (HPLC after filtration). It is filed as physicochemical. The procedure: The solubility of the peptide 1 salts in the gelling compositions of Table 1 was evaluated using HPLC analysis after filtration.

For the molecule `CC(=O)NC(CCCNC(=N)N)C(=O)N[C@H]1CSSC[C@@H](C(N)=O)NC(=O)[C@H](Cc2c[nH]c3ccccc23)NC(=O)[C@H](CCCNC(=N)N)NC(=O)[C@@H](Cc2ccccc2)NC(=O)[C@H](Cc2cnc[nH]2)NC(=O)[C@@H](C)NC1=O` (stereo partly drawn) [peptide 1 acetate salt, Ac-Arg-c(Cys-D-Ala-His-D-Phe-Arg-Trp-Cys)-NH2], the solubility by setting is: (38% glycerol gelling composition, in 38% glycerol, read-out: solubility) no less than 100 mg/mL; (in 32% PEG 400) no less than 100 mg/mL.

Consider `CC(=O)NC(CCCNC(=N)N)C(=O)N[C@H]1CSSC[C@@H](C(N)=O)NC(=O)[C@H](Cc2c[nH]c3ccccc23)NC(=O)[C@H](CCCNC(=N)N)NC(=O)[C@@H](Cc2ccccc2)NC(=O)[C@H](Cc2cnc[nH]2)NC(=O)[C@@H](C)NC1=O` (stereo partly drawn) [peptide 1 heptanoate salt, Ac-Arg-c(Cys-D-Ala-His-D-Phe-Arg-Trp-Cys)-NH2], for which the solubility (in 32% PEG 400) came out at 28.1 mg/mL.
